According to patent US20190153051A1, “FUSION PROTEIN OF C2 DOMAIN AND AKT KINASE DOMAIN FRAGMENT AND USE THEREOF” (Gachon University of Industry-Academic Cooperation …, priority 2017, published 2019):
Blank lines part the entries; values can stand above or below the molecule they belong to.

Assays:
[1] = ITC of C2 domain with PI(3,4,5)P3 liposomes; type: binding
Experimental: (§1) Particularly, a protein solution was prepared by suspending a protein in 10 mM HEPES (pH 7.0). Phospholipid related ligand was titrated in the protein solution at 25° C. by using iTC200 micro calorimetry system (MicroCal Inc., USA), and the generated graph was corrected using Origin software (MicroCal Inc., USA). At this time, the phospholipid related ligand was prepared in the form of liposome by mixing POPC (1-palmitoyl-2-oleoyl-sn-glycero-3-phosphocholin) chloroform solution and POPS (1-palmitoyl-2-oleoyl-sn-glycero-3-phosphoserine), PI(3,4)P2 (1,2-dipalmotoyl-sn-glycero-3-phosphatidylinositol-3,4-[…]), PI(4,5)P2 (1,2-dipalmotoyl-sn-glycero-3-phosphatidylinositol-4,5-trisphosphate) or PI(3,4,5)P3 (1,2-dipalmotoyl-sn-glycero-3-phosphatidylinositol-3,4,5-trisphosphate) at the molar ratio of 80:20. The organic solvent was eliminated. The organic solvent was removed and a single layer lamellar was produced in HEPES (pH 7.0) using phospholipids.
In the meantime, in ITC, the phospholipid related ligand was prepared in the form of liposome by mixing POPC chloroform solution and PI(3,4,5)P3 at the molar ratio of 80:20. Then, ITC was performed by the same manner under the same conditions as described in Example <7-3> except that the PKCβ protein C2 domain or D187/193A, the C2 domain mutant, was used.

[2] = test system: CHO cells; assay: Migration of mCherry-tagged PH or C2 domain to the cell membrane, fluorescence microscopy; type: cell-based
Text: First, the PH domain of Akt1 protein or the C2 domain of PKCβ protein was obtained by PCR using the primers consisting of the nucleotide sequences represented by […]. The obtained PCR product was cloned in pmCherry-C1 vector (Takara Clontech, Japan) by the conventional cloning method. CHO cells were transfected with the prepared vector by using lipofectamine according to the manufacturer's protocol. The transfected cells were selected by using blastidicin. Then, mCherry positive cells were confirmed by flow cytometry.
PMA at the concentration of 100 nM, ionomycin at the concentration of 10 μM or insulin at the concentration of 100 nM was added to the cells expressing the PH domain of Akt1 protein or the C2 domain of PKCβ protein and the location of the expressed protein was confirmed by fluorescence microscopy.

[3] = Protein-lipid binding assay (PIP-strips)
Experimental: (§2) Particularly, the analysis was performed by using membrane-immobilized lipid strips (PIP-strips, Echelon Biosciences Inc., USA). At this time, the membrane was loaded with LPA (lysophosphatidic acid), LPC (lysophosphatidylcholine), PI (phosphatidylinositol), PE (phosphatidylethanolamine), PC (phosphatidylcholine), S1P (sphingosine 1-phosphate), PA (phosphatidic acid) or PS (phosphatidylserine) at the concentration of 100 pmol, to which calcium was added at the concentration of 0, 0.05 or 0.1 mM. Each membrane was pre-treated with a blocking buffer [fatty acid free 3% BSA (bovine serum albumin), 0.1% (v/v) Tween 20 and TBS (Tris-buffered saline), pH 7.5] at room temperature for 30 minutes. The PH domain of Atk protein purified in Example <7-1> was suspended in a blocking buffer at the concentration of 3.5 mg/Ml. The suspended protein was reacted with the membrane-immobilized lipid strip at room temperature for 30 minutes. The protein bound with lipid was identified by using the PH domain antibody.
To investigate whether or not the binding of the PKCβ protein C2 domain purified in Example <8-1> to PI(4,5)P2 or PI(3,4,5)P3 was inhibited by calcium, protein-lipid binding assay and ITC were performed. First, protein-lipid binding assay was performed by the same manner under the same conditions as described in Example <7-2> except that the PKCβ protein C2 domain was used instead of the Akt protein PH domain. At this time, D187/193A and D246/248A mutant proteins of the C2 domain were used as the control group, and the results are shown in FIG. 8.

[4] = test system: Akt protein; assay: Western blotting of Akt protein phosphorylation in insulin-treated HepG2 cells; type: cell-based, human
Experimental: First, male C57BL/6 mice at 8 weeks were divided into the fasted group wherein the mice were fasted for 16 hours and the refed group wherein the mice were fasted for 16 hours and then fed for 4 hours. Each group was sub-divided into the high fat diet group (HFD) and the normal diet group (chow). The liver cells were extracted from the raised mice by the same manner and under the same conditions as described in Example 1. The extracted liver cells were lysed in a lysis buffer containing phosphatase (Sigma-Aldrich, USA) and protease inhibitor (Sigma-Aldrich, USA). Proteins extracted from 2 to 3 mg of the liver tissue were homogenized by using a tissue homogenizer (TissuLyser, Qiagen, USA) for 1.5 minutes at a frequency of 1/30 sec. The homogenized lysate was centrifuged at 12,000 rpm for 15 minutes and the supernatant was obtained. The amount of the extracted protein was quantified by using a protein assay kit (Bio-Rad Laboratories, USA), and at this time BSA was used as a standard sample. 3 mg of the protein was mixed with 6× loading buffer, followed by electrophoresis using 10% SDS-PAGE gel. The electrophoresed protein was transferred onto a polyvinylidene fluoride (PVDF) membrane by using a transfer buffer at 4° C. with 120 V for 1.5 hours. The PVDF membrane on which the protein was transferred was pretreated with a blocking buffer prepared by mixing 5% skim milk with TBS buffer (TBS-T, pH 7.6) supplemented with Tween 20 for 30 minutes, and the membrane was washed with TBS-T. The washed membrane was added with the antibody against Akt (Cell Signaling Technology, USA), Akt(T308) (Cell Signaling Technology, USA), Akt(S473) (Cell Signaling Technology, USA), FOXO3A (Cell Signaling Technology, USA), FOXO3A(S253) (Cell Signaling Technology, USA), GSK-3β (Cell Signaling Technology, USA) or GSK-3β(S9) (Cell Signaling Technology, USA) protein as a primary antibody, followed by reaction at 4° C. for 12 hours. At this time, the antibody against actin (Santa Cruz Biotechnology, USA) protein was used for the control group. Upon completion of the reaction, the secondary antibody corresponding to the primary antibody was added thereto, followed by reaction at room temperature for 30 minutes. The PVDF membrane was washed with TBS-T buffer three times. The washed PVDF membrane was added with ECL solution (Thermo Scientific, USA), followed by image observation.
To investigate the changes in insulin sensitivity when insulin was added to the fatty liver cell model constructed in vitro, the phosphorylations of those proteins that were involved in insulin signaling mechanism were examined. PA was added to the human HepG2 cells prepared in Example 3, followed by reaction for 24 hours. […]

[5] = ITC of phospholipid liposomes with calcium; type: binding; details: liposome with POPC 80:20, 25° C.
Experimental: as §1

[6] = test system: Akt protein; assay: Western blot of Akt activation in HepG2 cells co-transfected with PI3K under increased calcium; type: cell-based, human
[7] = Protein-lipid binding assay (PIP-strips); remark: listed apart in the source
Experimental: as §2

[8] = intracellular calcium concentration increased (PMA 100 nM, ionomycin 10 μM)
[9] = membrane-immobilized lipid strips
[10] = HepG2, PMA 0, 10, 50 or 100 nM or ionomycin 0, 1, 5, 10 or 20 μM, 100 nM insulin, dose-dependent

Molecule: C2 domain of PKCβ protein: purified C2 domain of PKCβ protein, SEQ. ID. NO: 14
binding to PI(3,4,5)P3 by ITC ([1]; absence of calcium): not induced
binding to PI(3,4,5)P3 by ITC ([1]; increased calcium concentration, POPC:PI(3,4,5)P3 80:20 liposome): strongly bound
migration to the cell membrane ([2]; insulin 100 nM added): did not migrate to the cell membrane
migration to the cell membrane [2, 8]: migrated as the intracellular calcium concentration was increased
effect of calcium on binding to PI(3,4,5)P3 ([3]; calcium 0, 0.05 or 0.1 mM): promoted
effect of calcium on binding to PI(4,5)P2 ([3]; calcium 0, 0.05 or 0.1 mM): promoted
binding to PI(3,4,5)P3 [3, 9]: strongly bound
binding to PI(4,5)P2 [3, 9]: strongly bound

Molecule: COc1ccc(CCN(C)CCCC(C#N)(c2ccc(OC)c(OC)c2)C(C)C)cc1OC (stereo not shown) [verapamil]
phosphorylation of Akt protein ([4]; HepG2, verapamil 0, 5, 10 or 100 nM, effect of insulin addition): increased

Molecule: C[C@H](CCC(=O)O)C[C@H](C)C[C@H](C)C(=O)/C=C(\O)[C@H](C)C[C@H](C)C/C=C/[C@@H](C)[C@@H](O)[C@@H](C)[C@@H](O)C[C@@H]1CC[C@@](C)([C@H]2CC[C@@](C)([C@@H](C)O)O2)O1 [ionomycin]
phosphorylation of Akt protein [4, 10]: significantly inhibited

Molecule: CCCCCCCCCCCCCC(=O)O[C@@H]1[C@@H](C)[C@@]2(O)[C@@H](C=C(CO)C[C@]3(O)C(=O)C(C)=C[C@@H]23)[C@@H]2C(C)(C)[C@]12OC(C)=O [PMA, phorbol myristate acetate]
phosphorylation of Akt protein [4, 10]: significantly inhibited

Molecule: wild type Akt protein: control: wild type Akt protein containing the PH domain, SEQ. ID. NO: 16
Akt protein activation by PI3K [6]: activated
Akt protein activation as calcium concentration increases ([6]; PMA 0, 10, 50 or 100 nM, ionomycin 20 μM, 1 hour): inhibited

B1: PH domain of Akt protein: purified PH domain of Akt1 protein, SEQ. ID. NO: 13 (protein)
chain: MSDVAIVKEGWLHKRGEYIKTWRPRYFLLKNDGTFIGYKERPQDVDQREAPLNNFSVAQCQLMKTERPRPNTFIIRCLQWTTVIERTFHVETPEEREEWTTAIQTVADGLKKQEEEEMDFRSGSPSDNSGAEEMEVSLAKPKHR
modifications: artificial_PH domain of Akt protein
effect of calcium on binding to PI(3,4)P2 ([7]; calcium 0, 0.05 or 0.1 mM): inhibited as calcium concentration was increased
binding to PI(3,4)P2 [7, 9]: bound
migration to the cell membrane ([2]; insulin 100 nM added): migrated to the cell membrane
migration to the cell membrane [2, 8]: not observed
effect of calcium on binding to PI(3,4,5)P3 ([3]; calcium 0, 0.05 or 0.1 mM): inhibited as calcium concentration was increased
binding to PI(3,4,5)P3 [3, 9]: bound

Other lines, results leading:

binding to calcium [5]: high affinity
Molecule: CCCCCCCCCCCCCCCC(=O)OCC(COP(=O)(O)OC1C(O)C(O)C(OP(=O)(O)O)C(OP(=O)(O)O)C1O)OC(=O)CCCCCCCCCCCCCCC (stereo not shown) [PI(3,4)P2, 1,2-dipalmotoyl-sn-glycero-3-phosphatidylinositol-3,4-triphosphate]

binding to calcium [5]: high affinity
Molecule: CCCCCCCCCCCCCCCC(=O)OCC(COP(=O)(O)OC1C(O)C(O)C(OP(=O)(O)O)C(OP(=O)(O)O)C1O)OC(=O)CCCCCCCCCCCCCCC (stereo not shown) [PI(4,5)P2, 1,2-dipalmotoyl-sn-glycero-3-phosphatidylinositol-4,5-trisphosphate]

binding to calcium [5]: high affinity
Molecule: CCCCCCCCCCCCCCCC(=O)OCC(COP(=O)(O)OC1C(O)C(OP(=O)(O)O)C(OP(=O)(O)O)C(OP(=O)(O)O)C1O)OC(=O)CCCCCCCCCCCCCCC (stereo not shown) [PI(3,4,5)P3, 1,2-dipalmotoyl-sn-glycero-3-phosphatidylinositol-3,4,5-trisphosphate]
